Reference: patent publication US9771379B2, “N-(2-(2-amino-6-substituted-4,4a,5,6-tetrahydropyrano[3,4-d][1,3]OXAZIN-8a(8H)-yl)-thiazol-4-yl) amides” (Pfizer Inc., priority 2015, dated 2017)

Biological target: full length human BACE1 (Homo sapiens (Human), UniProt P56817)
Experiment: BACE1 Scintillation Proximity Binding Assay (SPA)
Conditions: radioligand displacement, HEK cell membranes, pH 6.0
Procedure: BACE1 Scintillation Proximity Binding Assay (SPA): The BACE1 binding assay measured beta-site amyloid precursor protein-cleaving enzyme (BACE) binding as a decrease in the counts of radioligand bound in a scintillation proximity assay (SPA). […] Full length human BACE1 over-expressed in HEK cells was prepared by Pfizer scientists. Frozen stock cell paste was reacted in 50 mM sodium acetate buffer (pH=6.0) containing 3H-(4aR,6R,8aS)-8a-(2,4-difluorophenyl)-6-(1-methyl-1H-pyrazol-4-yl)-4,4a,5,6,8,8a-hexahydropyrano[3,4-d][1,3]thiazin-2-amine ligand, SPA bead and 60 μM to 600 pM of test compound in an assay volume of 27 uL. The compound plate also contained positive (BACE inhibitor) and negative (DMSO) control wells. The binding was carried out at room temperature for 30 minutes and then the plates were read on a TriLux Microbeta reader to determine the number of counts bound. The raw data was converted to percent effect compared to positive and negative control wells and the compound concentrations and % effect values for tested compounds were plotted to determine the 50% effect (1050) with a four-parameter logistic dose response equation.

Chain of full length human BACE1 (P56817 46-501): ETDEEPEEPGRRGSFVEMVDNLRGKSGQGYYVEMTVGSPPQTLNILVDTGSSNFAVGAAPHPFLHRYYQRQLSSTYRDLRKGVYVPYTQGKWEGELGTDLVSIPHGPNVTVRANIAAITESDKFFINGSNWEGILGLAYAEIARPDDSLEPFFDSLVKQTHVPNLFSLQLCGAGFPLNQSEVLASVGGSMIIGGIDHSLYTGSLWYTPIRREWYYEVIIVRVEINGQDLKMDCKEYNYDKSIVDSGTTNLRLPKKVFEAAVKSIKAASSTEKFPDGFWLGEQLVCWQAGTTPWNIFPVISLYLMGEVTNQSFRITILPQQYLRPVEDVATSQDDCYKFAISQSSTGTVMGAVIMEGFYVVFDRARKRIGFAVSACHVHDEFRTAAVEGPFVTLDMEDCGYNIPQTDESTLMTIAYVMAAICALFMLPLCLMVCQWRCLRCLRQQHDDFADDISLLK

| IC50 [nM] | Compound |
| --- | --- |
| 5 | Cc1cc(C#N)cnc1C(=O)Nc1csc([C@]23CO[C@@H](C(F)(F)F)C[C@H]2COC(N)=N3)n1 [Example 21, N-{2-[(4aR,6R,8aR)-2-amino-6-(trifluoromethyl)-4,4a,5,6-tetrahydropyrano [3,4-d][1,3]oxazin-8a(8H)-yl]-1,3-thiazol-4-yl}-5-cyano-3-methylpyridine-2-carboxamide] |
| 13 | Cc1nc(OC(F)F)cnc1C(=O)Nc1csc([C@]23CO[C@@H](C(F)(F)F)C[C@H]2COC(N)=N3)n1 [Example 22, N-{2-[(4aR,6R,8aR)-2-amino-6-(trifluoromethyl)-4,4a,5,6-tetrahydropyrano [3,4-d][1,3]oxazin-8a(8H)-yl]-1,3-thiazol-4-yl}-5-(difluoromethoxy)-3-methyl pyrazine-2-carboxamide] |
| 162 | COc1cnc(C(=O)Nc2csc([C@]34CO[C@@H](C(F)(F)F)C[C@H]3COC(N)=N4)n2)c(C)n1 [Example 23, N-{2-[(4aR,6R,8aR)-2-amino-6-(trifluoromethyl)-4,4a,5,6-tetrahydropyrano [3,4-d][1,3]oxazin-8a(8H)-yl]-1,3-thiazol-4-yl}-5-methoxy-3-methylpyrazine-2-carboxamide] |
